Assay results taken from patent US20250145715A1, “B7-H3 TARGETING FUSION PROTEINS AND METHODS OF USE THEREOF” (GT Biopharma, Inc., priority 2021, published 2025).

Test system: NK cells (CD45+CD56+CD3−) in PBMCs, with or without OVCAR8
Assay: Mass cytometry (CyTOF) of TriKE activated NK cells
Assay type: cell-based, human
Protocol: FIG. 31 illustrates high dimensional analysis of cam1615B7-H3 activated NK cells. Concatenated analysis of three donors PBMCs incubated alone, with 30 nM cam1615B7-H3 TriKE, with OVCAR8 tumor (2:1 E:T), or with 30 nM cam1615B7-H3 TriKE and OVCAR8 tumor. Data was visualized in viSNE (Cytobank) and gated on CD45+CD56+CD3-cells.
For mass cytometry (CyTOF) studies, PBMCs were incubated alone or with OVCAR8s at a 2:1 ratio+/−cam1615B7-H3 (30 nM) for 24 h. After harvesting samples, cells were counted, and viability was measured using trypan blue exclusion. Two hundred thousand cells from each donor were aliquoted into 5-mL polystyrene U-bottom tubes for barcoding and CyTOF staining. Cells were stained with Cisplatin (Fluidigm Product #201064, San Francisco, CA, USA), followed by barcoding using the Cell-ID 20-Plex Pd Barcoding Kit (Fluidigm Product #201060). After barcoding, all cells were combined into a single 5-mL polystyrene U-bottom tube and incubated in the surface marker antibody cocktail for 30 min at 4° C.
Following surface staining, cells were then fixed using 2% PFA. For intracellular staining, cells were permeabilized by incubation with Triton X 0.1% for 5 min at room temperature, followed by incubation with intracellular antibody cocktail for 30 min at 4° C. Stained cells were then incubated overnight with Cell-ID Intercalator (Fluidigm Product #201192A). The following morning cells were washed and run on the CyTOF 2 instrument. Wash steps were completed using either Maxpar PBS (Fluidigm Product #201058), Maxpar Cell Staining Buffer (Fluidigm Product #201068), or Millipure Water at 1600 RPM for 4 min. For custom tagged antibodies: Conjugation of heavy metals to a specific ScFv is conducted using the Maxpar antibody labeling kit (Fluidigm). The protocol involves partial antibody reduction using 0.5 M TCEP: Pierce Bond-Breaker TCEP Solution (Thermo Scientific Product #77720, Waltham, MA, USA), as well as comprehensive buffer exchange using centrifugal filter units of both 3 kDa and 50 kDa size (Millipore Product #UFC500396, UFC505096, Burlington, MA, USA). After conjugation of the antibody, yield is measured, and the final reagent is stored in antibody stabilizer (Boca Scientific Product #131 000, Westwood, MA, USA). The reagent is then titrated and verified against known flow cytometry antibodies. Data from the three donors was concatenated. FCS file concatenation was completed with a combination of Cytobank and Flowjo. All Visne analyses were carried out in Cytobank.
As illustrated in FIG. 31 high dimensional analysis of cam1615B7-H3 TriKE activated cells was performed. To broadly evaluate the phenotypic and functional effects of TriKE activation on NK cells, a custom, 42 parameter, CyTOF (mass cytometry) NK cell targeted panel was used. PBMCs were left untreated, incubated with cam1615B7-H3 TriKE for 24 h, incubated with tumor (OVCAR8s) for 24 h, or incubated with tumor and cam1615B7-H3 TriKE for 24 h. Cells were then stained, fixed, and run on a CyTOF2. Samples (three biologic replicates per condition) were concatenated, and data was visualized with viSNE, which uses all expression information to display localization of individual cells in a 2D plot in order to explore the multidimensional data (FIG. 31). The data indicated no changes in distributions of CD56^brights versus CD56^dims. Activation markers CD25 and CD69 were both induced with TriKE treatment, as was the chemokine receptor CXCR3. Granzyme B, involved in cytolytic activity of NK cells, was primed on effectors+TriKE, but in the presence of tumor targets (effectors+tumor+TriKE) these Granzyme B high cells disappeared, likely as a cause of ADCC driven specific degranulation. […] This also seemed to be the case with NKG2D, but the natural cytotoxicity receptors (NCR: NKp30, NKp44, and NKp46) were less affected.

[1] = effectors exposed to tumor in the presence of TriKE

Substance: cam1615B7-H3: second-generation TriKE: humanized camelid anti-CD16 VHH, human wild-type IL-15, anti-B7-H3 mAb 376.96 scFv; SEQ ID NO:1
- distributions of CD56brights versus CD56dims (30 nM, 24 h): no changes
- CD25 expression (30 nM, 24 h, TriKE treatment): induced
- CD69 expression (30 nM, 24 h, TriKE treatment): induced
- CXCR3 expression (30 nM, 24 h, TriKE treatment): induced
- TIGIT [1]: did not seem as affected
- activating KIR (KIR2DS1 and KIR2DS4) expression [1]: reduced in expression
- inhibitory KIR (KIR2DL1, KIR2DL3 and KIR3DL1) expression [1]: reduced in expression
- natural cytotoxicity receptors (NKp30, NKp44, NKp46) [1]: less affected
- Granzyme B (effectors+TriKE): primed
- Granzyme B high cells (effectors+tumor+TriKE): disappeared
